The target in test [1] is T1, Mitogen-activated protein kinase kinase kinase 5 (Homo sapiens) (UniProt Q99683).
T1 sequence (whole entry): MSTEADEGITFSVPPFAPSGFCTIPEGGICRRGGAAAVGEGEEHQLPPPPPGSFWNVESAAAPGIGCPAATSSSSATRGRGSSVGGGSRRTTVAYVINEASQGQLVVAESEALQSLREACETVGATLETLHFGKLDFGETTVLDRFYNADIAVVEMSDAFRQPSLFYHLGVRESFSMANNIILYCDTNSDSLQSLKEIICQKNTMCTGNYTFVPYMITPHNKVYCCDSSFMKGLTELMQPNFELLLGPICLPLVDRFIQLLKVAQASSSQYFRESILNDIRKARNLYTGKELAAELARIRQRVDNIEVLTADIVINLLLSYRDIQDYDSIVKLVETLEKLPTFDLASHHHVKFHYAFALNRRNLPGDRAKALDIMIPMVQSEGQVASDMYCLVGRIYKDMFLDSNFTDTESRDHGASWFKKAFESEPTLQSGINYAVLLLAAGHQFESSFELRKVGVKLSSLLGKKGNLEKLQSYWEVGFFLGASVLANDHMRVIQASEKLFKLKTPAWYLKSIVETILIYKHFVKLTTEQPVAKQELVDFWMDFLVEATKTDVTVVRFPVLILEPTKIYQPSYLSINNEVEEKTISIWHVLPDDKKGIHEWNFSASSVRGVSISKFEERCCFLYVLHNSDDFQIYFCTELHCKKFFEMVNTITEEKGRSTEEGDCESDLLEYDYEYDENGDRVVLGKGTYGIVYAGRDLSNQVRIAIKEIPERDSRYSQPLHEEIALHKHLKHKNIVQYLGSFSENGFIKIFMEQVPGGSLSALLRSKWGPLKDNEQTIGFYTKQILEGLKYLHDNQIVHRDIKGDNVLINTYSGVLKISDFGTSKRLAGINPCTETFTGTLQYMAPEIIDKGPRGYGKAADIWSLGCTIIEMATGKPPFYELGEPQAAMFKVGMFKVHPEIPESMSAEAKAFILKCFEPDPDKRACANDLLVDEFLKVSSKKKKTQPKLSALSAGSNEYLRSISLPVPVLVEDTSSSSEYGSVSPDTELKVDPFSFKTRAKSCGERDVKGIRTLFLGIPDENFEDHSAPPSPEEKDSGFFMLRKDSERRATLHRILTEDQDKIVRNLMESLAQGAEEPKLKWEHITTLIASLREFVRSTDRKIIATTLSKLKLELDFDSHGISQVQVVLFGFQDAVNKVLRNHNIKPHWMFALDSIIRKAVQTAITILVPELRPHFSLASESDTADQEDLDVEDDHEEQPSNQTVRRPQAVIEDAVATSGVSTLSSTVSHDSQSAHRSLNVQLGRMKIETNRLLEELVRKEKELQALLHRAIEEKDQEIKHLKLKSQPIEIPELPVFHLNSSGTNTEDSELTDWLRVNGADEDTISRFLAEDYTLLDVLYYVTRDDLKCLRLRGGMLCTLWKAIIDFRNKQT
Nature of the test: Inhibition of human ASK1 at 1.82 nM by HotSpot assay relative to control.

For test [2], the target named is Mitogen-activated protein kinase kinase kinase 20 (Homo sapiens) (UniProt Q9NYL2). Nature of the test: Inhibition of human MLTK at 1.82 nM by HotSpot assay relative to control.
The target of test [3] is T2, Serine/threonine-protein kinase ULK2 (Homo sapiens) (UniProt Q8IYT8).
T2 sequence (whole entry): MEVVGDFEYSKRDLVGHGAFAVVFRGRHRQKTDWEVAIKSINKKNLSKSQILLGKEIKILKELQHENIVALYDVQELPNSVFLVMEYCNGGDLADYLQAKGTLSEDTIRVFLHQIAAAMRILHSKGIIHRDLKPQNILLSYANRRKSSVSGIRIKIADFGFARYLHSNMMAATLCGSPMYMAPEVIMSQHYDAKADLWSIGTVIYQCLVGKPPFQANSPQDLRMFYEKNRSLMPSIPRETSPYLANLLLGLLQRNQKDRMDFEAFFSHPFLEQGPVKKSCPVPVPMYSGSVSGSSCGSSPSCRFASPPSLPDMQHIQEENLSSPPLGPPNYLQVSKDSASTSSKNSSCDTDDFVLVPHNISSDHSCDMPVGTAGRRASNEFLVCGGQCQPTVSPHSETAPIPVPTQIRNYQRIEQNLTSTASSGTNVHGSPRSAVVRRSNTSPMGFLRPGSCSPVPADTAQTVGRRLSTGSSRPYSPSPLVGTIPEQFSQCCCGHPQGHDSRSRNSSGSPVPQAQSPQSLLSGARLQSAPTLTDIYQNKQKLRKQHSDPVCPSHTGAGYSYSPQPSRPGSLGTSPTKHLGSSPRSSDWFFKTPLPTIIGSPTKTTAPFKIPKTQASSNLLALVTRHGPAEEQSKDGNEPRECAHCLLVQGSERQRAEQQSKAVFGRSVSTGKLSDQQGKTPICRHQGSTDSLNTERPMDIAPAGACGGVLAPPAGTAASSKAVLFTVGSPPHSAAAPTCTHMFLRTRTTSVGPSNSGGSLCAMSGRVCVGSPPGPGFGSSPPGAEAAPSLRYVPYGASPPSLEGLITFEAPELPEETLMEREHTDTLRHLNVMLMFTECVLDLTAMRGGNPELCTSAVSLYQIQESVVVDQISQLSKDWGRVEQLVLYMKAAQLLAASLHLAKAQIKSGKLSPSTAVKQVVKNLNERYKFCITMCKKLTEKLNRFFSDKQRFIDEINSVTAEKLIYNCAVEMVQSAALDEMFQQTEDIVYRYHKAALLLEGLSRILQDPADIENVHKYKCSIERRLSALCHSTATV
Briefly: Inhibition of human ULK2 at 1.82 nM by HotSpot assay relative to control.

Test [4] deals with Leucine-rich repeat serine/threonine-protein kinase 2 (Homo sapiens) (UniProt Q5S007). Nature of the test: Inhibition of human LRRK2 at 1.82 nM by HotSpot assay relative to control.

Molecules are shown by their SMILES.

Sequence of Leucine-rich repeat serine/threonine-protein kinase 2 (Homo sapiens) (Q5S007 whole entry): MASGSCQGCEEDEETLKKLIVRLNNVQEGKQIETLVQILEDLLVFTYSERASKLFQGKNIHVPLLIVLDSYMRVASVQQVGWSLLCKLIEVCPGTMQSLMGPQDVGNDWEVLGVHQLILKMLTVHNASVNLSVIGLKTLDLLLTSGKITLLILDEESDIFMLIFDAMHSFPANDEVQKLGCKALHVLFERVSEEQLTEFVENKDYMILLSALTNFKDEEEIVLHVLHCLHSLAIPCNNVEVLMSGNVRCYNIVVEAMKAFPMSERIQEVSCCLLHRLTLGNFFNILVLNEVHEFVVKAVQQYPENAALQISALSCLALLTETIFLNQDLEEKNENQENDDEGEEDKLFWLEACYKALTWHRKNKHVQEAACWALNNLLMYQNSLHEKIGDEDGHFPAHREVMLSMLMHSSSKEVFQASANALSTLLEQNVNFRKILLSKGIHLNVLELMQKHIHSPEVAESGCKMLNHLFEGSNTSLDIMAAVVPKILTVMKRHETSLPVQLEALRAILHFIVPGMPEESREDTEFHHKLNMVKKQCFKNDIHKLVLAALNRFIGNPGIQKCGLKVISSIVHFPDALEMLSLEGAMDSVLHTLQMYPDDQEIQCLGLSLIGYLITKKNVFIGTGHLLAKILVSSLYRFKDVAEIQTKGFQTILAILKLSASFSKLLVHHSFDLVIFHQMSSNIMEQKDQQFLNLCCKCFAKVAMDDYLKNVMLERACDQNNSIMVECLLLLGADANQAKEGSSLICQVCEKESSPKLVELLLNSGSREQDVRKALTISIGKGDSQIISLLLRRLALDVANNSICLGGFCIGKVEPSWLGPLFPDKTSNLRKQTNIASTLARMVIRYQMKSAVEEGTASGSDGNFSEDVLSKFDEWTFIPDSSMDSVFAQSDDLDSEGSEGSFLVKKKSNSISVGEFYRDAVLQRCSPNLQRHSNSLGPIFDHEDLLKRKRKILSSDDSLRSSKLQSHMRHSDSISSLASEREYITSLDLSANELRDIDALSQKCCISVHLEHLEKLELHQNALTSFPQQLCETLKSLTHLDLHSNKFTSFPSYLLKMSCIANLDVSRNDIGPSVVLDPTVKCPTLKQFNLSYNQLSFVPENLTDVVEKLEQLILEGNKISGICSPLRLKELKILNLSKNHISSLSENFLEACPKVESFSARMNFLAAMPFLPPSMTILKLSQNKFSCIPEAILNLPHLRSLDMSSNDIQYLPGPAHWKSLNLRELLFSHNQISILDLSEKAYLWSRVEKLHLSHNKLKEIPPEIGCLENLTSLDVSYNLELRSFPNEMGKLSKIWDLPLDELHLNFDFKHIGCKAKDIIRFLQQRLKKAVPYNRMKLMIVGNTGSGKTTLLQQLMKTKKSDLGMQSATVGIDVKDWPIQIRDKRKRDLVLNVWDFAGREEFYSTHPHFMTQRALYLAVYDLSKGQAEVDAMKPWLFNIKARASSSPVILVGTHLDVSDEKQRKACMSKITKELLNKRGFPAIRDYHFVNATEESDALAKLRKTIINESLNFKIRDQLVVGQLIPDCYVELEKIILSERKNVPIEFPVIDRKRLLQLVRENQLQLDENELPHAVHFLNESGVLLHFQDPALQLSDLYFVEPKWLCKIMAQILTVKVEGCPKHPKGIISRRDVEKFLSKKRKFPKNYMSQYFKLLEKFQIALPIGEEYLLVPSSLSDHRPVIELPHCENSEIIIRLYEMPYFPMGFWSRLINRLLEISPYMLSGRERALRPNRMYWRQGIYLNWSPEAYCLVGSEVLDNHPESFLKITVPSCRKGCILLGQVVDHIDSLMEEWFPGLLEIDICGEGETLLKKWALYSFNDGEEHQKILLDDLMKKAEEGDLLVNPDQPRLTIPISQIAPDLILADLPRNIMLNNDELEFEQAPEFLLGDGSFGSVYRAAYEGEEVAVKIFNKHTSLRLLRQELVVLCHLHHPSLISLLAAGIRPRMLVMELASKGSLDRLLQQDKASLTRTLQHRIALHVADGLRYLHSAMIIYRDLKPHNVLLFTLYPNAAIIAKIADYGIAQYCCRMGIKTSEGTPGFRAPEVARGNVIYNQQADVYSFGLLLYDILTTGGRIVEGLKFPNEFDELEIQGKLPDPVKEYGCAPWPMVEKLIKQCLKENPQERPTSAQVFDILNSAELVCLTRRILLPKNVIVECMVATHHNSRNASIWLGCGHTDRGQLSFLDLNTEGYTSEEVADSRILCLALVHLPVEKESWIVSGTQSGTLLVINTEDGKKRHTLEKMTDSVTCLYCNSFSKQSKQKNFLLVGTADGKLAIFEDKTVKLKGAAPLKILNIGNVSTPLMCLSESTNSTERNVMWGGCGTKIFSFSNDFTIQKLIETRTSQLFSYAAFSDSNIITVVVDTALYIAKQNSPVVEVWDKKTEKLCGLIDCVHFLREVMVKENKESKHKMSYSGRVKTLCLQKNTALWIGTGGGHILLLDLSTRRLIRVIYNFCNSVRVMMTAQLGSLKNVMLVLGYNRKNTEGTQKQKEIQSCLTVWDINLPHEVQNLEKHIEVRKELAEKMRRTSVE
Sequence of Mitogen-activated protein kinase kinase kinase 20 (Homo sapiens) (Q9NYL2 2-800 limits assumed): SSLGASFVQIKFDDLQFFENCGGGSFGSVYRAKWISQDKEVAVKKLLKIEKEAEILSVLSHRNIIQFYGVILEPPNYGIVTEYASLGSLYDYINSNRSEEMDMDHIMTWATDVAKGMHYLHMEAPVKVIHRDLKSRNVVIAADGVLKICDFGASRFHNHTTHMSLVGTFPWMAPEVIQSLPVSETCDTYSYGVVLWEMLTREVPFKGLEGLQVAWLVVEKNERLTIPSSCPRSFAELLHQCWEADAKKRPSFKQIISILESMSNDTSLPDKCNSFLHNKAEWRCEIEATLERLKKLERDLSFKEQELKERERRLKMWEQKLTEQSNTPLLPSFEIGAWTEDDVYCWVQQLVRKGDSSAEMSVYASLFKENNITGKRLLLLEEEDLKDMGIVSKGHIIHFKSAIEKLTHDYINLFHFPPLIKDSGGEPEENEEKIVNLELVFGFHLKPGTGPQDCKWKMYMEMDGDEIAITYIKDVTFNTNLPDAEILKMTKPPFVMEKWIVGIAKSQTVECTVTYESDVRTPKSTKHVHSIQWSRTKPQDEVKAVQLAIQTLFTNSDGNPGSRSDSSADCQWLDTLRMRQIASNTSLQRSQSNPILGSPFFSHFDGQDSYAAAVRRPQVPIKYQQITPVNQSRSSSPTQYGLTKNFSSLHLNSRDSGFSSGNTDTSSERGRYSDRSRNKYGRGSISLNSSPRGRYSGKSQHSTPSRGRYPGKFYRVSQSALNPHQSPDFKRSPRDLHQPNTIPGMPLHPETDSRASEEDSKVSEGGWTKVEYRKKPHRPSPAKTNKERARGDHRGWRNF

Broadly, the inhibition is the change of the read-out against control, counted positive when it falls. As for `C[C@@]1(C(=O)Nc2ccc(F)nc2)CCCN1c1nc(Nc2cc(C3CC3)n[nH]2)c2cccn2n1`, the inhibition was -3.08% in test [1], 2.09% in test [2], -7.91% in test [3] and -6.63% in test [4].
